{
  "source": "patent US11376235B2",
  "about": "“Inhibitor of inflammasome activation” (KRACIE HOLDINGS, LTD., priority 2016, dated 2022)",
  "key": {"[1]": {"details": "stated as a fact, no test described; cited from earlier work"}, "NLRP3 inflammasome [2]": {"system": "NLRP3 inflammasome", "assay": "Inflammasome activation by ATP stimulation in PMA-differentiated, LPS-treated THP1-Null cells (Test 1)", "format": "cell-based, human", "details": "ATP 5 mM stimulation, arctigenin at concentrations of 10 μM and higher, 1 h pretreatment, vs Control without arctigenin, Dunnett's test", "method": "(§1) THP1-Null cells (Invivogen) or THP-1 cells (JCRB Cell Bank), which are NLRP3 inflammasome reporter cell lines derived from human monocytic cells, were cultured in a RPMI medium containing 10% FBS and 4.5% glucose (hereinafter referred to as a THP1 culture medium, SIGMA). The cells were treated with 500 nM PMA (SIGMA) for 3 hours to differentiate the cells into macrophages, and the cells were washed with PBS twice and then used for the following experiment.\n(§2) The THP1-Null cells or the THP-1 cells after the induction of differentiation were suspended in the THP1 culture medium at 1.0×10^6 cells/mL and seeded in a 96-well microplate at 180 μL per well (1.8×10^5 cells/well). […] The IL-1β concentrations of the culture supernatants were measured using IL-1β reporter cell line HEKBlue (trademark) IL-18/IL-1β cells (Invivogen) or the ELISA method. The caspase-1 concentrations of the culture supernatants were also measured by the ELISA method.\n(§3) HEK Blue (trademark) IL-18/IL-1β cells were used for measuring the IL-1β concentrations of the medium supernatants collected after the ATP treatment. […] The absorbance of each well at 655 nm was measured using a microplate reader, and the IL-1β concentration was measured. […]\n(§4) Caspase-1 was measured following the TDS of Quantikine (registered trademark) ELISA Human Caspase-1/ICE (R&D systems (trademark)). […]"}, "AIM2 inflammasome": {"system": "AIM2 inflammasome", "assay": "Inflammasome activation by Poly(dA:dT) stimulation in PMA-differentiated, LPS-treated THP-1 cells (Test 4)", "format": "cell-based, human", "details": "Poly(dA:dT)/LyoVec 5 μg/mL stimulation, 8 h, vs Control, Student's t-test, ELISA", "method": "as §1, §2, §3, §4"}, "NLRP3 inflammasome [3]": {"system": "NLRP3 inflammasome", "assay": "Inflammasome activation by palmitic acid stimulation in PMA-differentiated, LPS-treated THP1-Null cells (Test 2)", "format": "cell-based, human", "details": "palmitic acid 500 μM stimulation, 12 h, arctigenin 500 nM pretreatment, vs Control, Student's t-test, ELISA", "method": "as §1, §2, §3, §4"}, "NLRP3 inflammasome [4]": {"system": "NLRP3 inflammasome", "assay": "Inflammasome activation by MSU stimulation in PMA-differentiated, LPS-treated THP1-Null cells (Test 3)", "format": "cell-based, human", "details": "MSU 100 μg/mL stimulation, 3 h, vs Control, ELISA", "method": "as §1, §2, §3, §4"}},
  "data": [
    {"molecule": "COc1cc(C[C@H]2C(=O)OC[C@@H]2Cc2ccc(OC)c(OC)c2)ccc1O", "note": "[arctigenin]", "values": [
      {"measurement": "solubility in water", "setting": "[1]", "value": "insoluble in water"},
      {"measurement": "caspase-1 amount", "setting": "NLRP3 inflammasome [2]; ELISA, FIG. 2", "value": "decreased with significance"},
      {"measurement": "released IL-1β amount", "setting": "NLRP3 inflammasome [2]; HEK Blue IL-18/IL-1β reporter cells, FIG. 1", "value": "decreased with significance"},
      {"measurement": "caspase-1 amount", "setting": "AIM2 inflammasome; arctigenin 250 nM pretreatment, FIG. 8", "value": "decreased with significance"},
      {"measurement": "released IL-1β amount", "setting": "AIM2 inflammasome; arctigenin 500 nM pretreatment, FIG. 7", "value": "decreased with significance"},
      {"measurement": "released IL-1β amount", "setting": "NLRP3 inflammasome [3]; FIG. 3", "value": "decreased with significance"},
      {"measurement": "caspase-1 amount", "setting": "NLRP3 inflammasome [3]; FIG. 4", "value": "decreased with significance"},
      {"measurement": "released IL-1β amount", "setting": "NLRP3 inflammasome [4]; arctigenin at concentrations of 10 μM and higher, Dunnett's test, FIG. 5", "value": "decreased with significance"},
      {"measurement": "caspase-1 amount", "setting": "NLRP3 inflammasome [4]; arctigenin pretreatment, FIG. 6", "value": "decreased concentration-dependently"}
    ]}
  ]
}
